Measured values from US20050148069A1, “IGF-1 instructs multipotent adult CNS neural stem cells to an oligodendroglial lineage” (priority 2003, published 2005).

Columns and labels:
Noggin = assay: quantitative real time PCR, Noggin expression; assay type: cell-based, rat; conditions: 500 ng/ml IGF-I, up to 48 hours, normalized to GAPDH
From the text: (§1) If IGF-I induction of oligodendrocyte differentiation involves the inhibition of BMP signaling, a change in the expression of BMP antagonists after IGF-I treatment might be observed. In addition to extracellular antagonists of BMP signaling, such as Noggin, intracellular proteins that can interfere with downstream BMP receptor signaling, called inhibitory Smads (Smad6, 7), have also been identified (Christian and Nakayama, 1999). Therefore, we performed Q-PCR analyses of cultures treated with IGF-I after various time points (up to 48 hours) and examined the relative fold change (normalized to an internal control; see Methods) of Noggin, Smad6, 7 (FIG. 6, A-C). Expression of Noggin, Smad6, 7 increased by at least 6-, 5-, and 2-fold, respectively, after IGF-I treatment (p<0.05, t-test). There may be an unexplained downregulation of Smad6 at the 48-h time point.
(§2) Total RNA was isolated from cell cultures using RNeasy columns (Qiagen). For real-time quantitative PCR, reactions were carried out essentially as described (Zhao et al., 2001). The relative amount of the tested message was normalized to the level of the internal control message, GAPDH. […] Primer sequences are available upon request.

Smad7 = assay: quantitative real time PCR, Smad7 expression; assay type: cell-based, rat; conditions: 500 ng/ml IGF-I, up to 48 hours, normalized to GAPDH
From the text: as §1, §2

[1] = test system: multipotent neural progenitor cells derived from the whole brain of P10 ICR mice; assay: differentiation of whole brain-derived multipotent neural progenitor cells; assay type: cell-based, mouse; conditions: IGF-I treatment, primary cultures (unpublished data)
Description: The neural progenitor cells isolated from the hippocampus of female Fischer 344 used in this study have been characterized previously (Gage et al., 1995; Palmer et al., 1997). The whole brain-derived neural stem cells from PIO ICR mice were isolated and cultured according to the methods as described, with slight modifications. Cells were cultured as previously described (Gage et al., 1995; Ray et al., 1993). Cells between passages 10 and 20 were used for in vitro differentiation analyses. To induce differentiation, cells were plated into 4-well chamber slides at a density of 55,000-75,000 cells per well and were allowed to proliferate in N2-supplemented (Invitrogen) DMEM:F12 (Omega Scientific) medium containing 20 ng/ml FGF-2 (PeproTech, Inc.) for 24 hours. FGF-2 was then withdrawn and cells were subsequently treated with differentiation media. […] For IGF-induction experiments, cells were trypsinized, washed with 1× PBS, and plated into insulin-free N2 medium. Either human recombinant IGF-I or IGF-II (500 ng/ml; R&D Systems) or insulin (500 ng/ml; Sigma) was added for 4 days, except when indicated otherwise. In some cultures, BrdU (2.5 μM, Sigma) was added to label dividing cells, and Q-VD-OPh (2 μM, Enzyme Systems Products) was added to prevent apoptosis.

Smad6 = assay: quantitative real time PCR, Smad6 expression; assay type: cell-based, rat; conditions: 500 ng/ml IGF-I, up to 48 hours, normalized to GAPDH
From the text: as §1, §2

[2] = test system: adult hippocampus-derived neural progenitor cells; assay: mathematical model of proliferation and differentiation rates; parameters: species or system rat; conditions: 500 ng/ml IGF-I
From the text: Therefore, to separate the IGF-I effects on proliferation of progenitors from the instructive differentiation of progenitors to oligodendrocytes, we developed a mathematical model (as shown in FIG. 4A). This modeling approach has previously been used to quantify the effects of hippocampal astrocytes on the proliferation and neuronal differentiation of adult neural progenitor cells (Song et al., 2002). To distinguish the proliferation and differentiation rates, the model required that we count the number of RIP+ cells that were either positive or negative for BrdU at each time point. […] Because of this finding, we decided to separate the proliferation rate of RIP− (defined as α) and RIP+ cells (γ), as well as the differentiation rate (β) of RIP− to RIP+ cells. The overall death rate measured by Hoechst dye in live cultures could not be experimentally separated into a RIP− death rate (δ) and a RIP+ death rate (ε) (Song et al., 2002). Therefore, the model was bounded by the two possibilities that all cell death is from only RIP− or only RIP+ cells. We also considered the more probable assumption that the death rates for both RIP− and RIP+ cells were equal.
Six equations were used to derive values for these rates. The first equation describes the differential gain in RIP− cells: dN^RIP−/dt=(α−δ)N^RIP−−βN^RIP− (b 1) where N^RIP−is the number of RIP− cells, α is the proliferation rate of RIP− cells (per 12-h interval), β is the differentiation rate of RIP− into RIP+ cells, and δ is the death rate of RIP− cells. Similarly for RIP+ cells, dN^RIP+/dt=(γ−ε)N^RIP++βN^RIP− (2) where N^RIP+ is the number of RIP+ cells, […] is a proliferation rate of RIP+ cells, and ε is the RIP+ death rate. The sum of (1) and (2) is the equation defining total cell count: dN^Total/dt=(α−δ)N^RIP−+(γ−ε)N^RIP+ (3)
The time-course experiments were performed in 12-h intervals, allowing for measurement of the proliferation and differentiation rates at each 12-h time interval—αi is the proliferation rate of RIP− cells at time ‘i’ and so forth. […]

In the case of “IGF-I: human recombinant IGF-I (R&D Systems), growth factor polypeptide”, the “relative fold change of Noggin expression” value (Noggin) is reported as “at least 6 fold”, the “relative fold change of Smad7 expression” value (Smad7) is reported as at least 2 fold and the differentiation into oligodendrocytes [1] is reported as “exhibited a preferential differentiation into oligodendrocytes”. For the same substance, the “relative fold change of Smad6 expression” value (Smad6) was at least 5 fold, the “differentiation rate (β) of RIP− to RIP+ cells” value [2] was “increase in differentiation rate” and the “proliferation rate (γ) of RIP+ cells” value [2] was “increase in the proliferation rate”. The “proliferation rate of RIP− cells (α)” value [2] was “no increase in the proliferation rate of RIP− cells”.
